Experimental data as given in PMC10419279, “Biochemical and Functional Characterization of the Three Zebrafish Transglutaminases 2” (International Journal of Molecular Sciences, 2023).
Square brackets hold non-standard residues; d marks the D form. Peptide text beside a SMILES is read from it. * marks the point of attachment. DON = [N-]=[N+]=CC(=O)CC[C@H](N)C(=O)O; Cbz = O=C(OCc1ccccc1)*

Tests used:
Experiment in all cases: ELISA, pentylamine-biotin incorporation into coated N,N-dimethylcasein
Format in all cases: biochemical
[1] = molecular target: T1, zTG2like (Danio rerio, UniProt A3KQ87)
T1 construct: gene tgm2l; full-length CDS in pET30a(+), His6-tagged (text: C-terminal His-tag; reverse primer keeps stop codon), E. coli BL21(DE3), Ni-NTA; primer-encoded N-terminus MASYNA, C-terminus AVPEI
T1 sequence (A3KQ87 1-692): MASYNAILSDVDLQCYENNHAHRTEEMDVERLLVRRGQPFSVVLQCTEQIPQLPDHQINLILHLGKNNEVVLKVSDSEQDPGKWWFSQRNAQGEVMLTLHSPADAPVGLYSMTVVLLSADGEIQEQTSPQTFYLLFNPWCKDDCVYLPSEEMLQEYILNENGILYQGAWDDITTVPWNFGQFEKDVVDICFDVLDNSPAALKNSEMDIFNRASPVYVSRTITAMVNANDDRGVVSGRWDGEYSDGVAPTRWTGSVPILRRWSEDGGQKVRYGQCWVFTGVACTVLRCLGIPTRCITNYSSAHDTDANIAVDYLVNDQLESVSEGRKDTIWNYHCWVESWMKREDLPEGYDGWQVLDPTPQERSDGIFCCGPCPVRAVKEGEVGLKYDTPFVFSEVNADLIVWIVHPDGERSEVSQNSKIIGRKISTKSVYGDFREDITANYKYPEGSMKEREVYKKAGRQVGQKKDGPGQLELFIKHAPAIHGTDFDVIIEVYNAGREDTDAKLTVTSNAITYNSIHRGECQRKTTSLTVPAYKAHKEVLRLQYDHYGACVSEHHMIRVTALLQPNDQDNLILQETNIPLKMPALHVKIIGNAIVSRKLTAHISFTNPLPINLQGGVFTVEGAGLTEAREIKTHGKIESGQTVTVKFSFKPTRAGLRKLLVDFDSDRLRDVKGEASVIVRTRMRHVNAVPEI

[2] = molecular target: T2, zTG2b (Danio rerio, UniProt A0ACM8QA61); conditions: 50 ng enzyme, 0.2 mM pentylamine-biotin, 5 mM CaCl2, 10 mM DTT, pH 8.0, 37 °C, 1 h; methods print inhibitor doses as mM
T2 construct: gene tgm2b; full-length CDS in pET30a(+), His6-tagged (text: C-terminal His-tag; reverse primer keeps stop codon), E. coli BL21(DE3), Ni-NTA; primer-encoded N-terminus MALDIG, C-terminus VIIGK
T2 sequence (A0ACM8QA61 1-679): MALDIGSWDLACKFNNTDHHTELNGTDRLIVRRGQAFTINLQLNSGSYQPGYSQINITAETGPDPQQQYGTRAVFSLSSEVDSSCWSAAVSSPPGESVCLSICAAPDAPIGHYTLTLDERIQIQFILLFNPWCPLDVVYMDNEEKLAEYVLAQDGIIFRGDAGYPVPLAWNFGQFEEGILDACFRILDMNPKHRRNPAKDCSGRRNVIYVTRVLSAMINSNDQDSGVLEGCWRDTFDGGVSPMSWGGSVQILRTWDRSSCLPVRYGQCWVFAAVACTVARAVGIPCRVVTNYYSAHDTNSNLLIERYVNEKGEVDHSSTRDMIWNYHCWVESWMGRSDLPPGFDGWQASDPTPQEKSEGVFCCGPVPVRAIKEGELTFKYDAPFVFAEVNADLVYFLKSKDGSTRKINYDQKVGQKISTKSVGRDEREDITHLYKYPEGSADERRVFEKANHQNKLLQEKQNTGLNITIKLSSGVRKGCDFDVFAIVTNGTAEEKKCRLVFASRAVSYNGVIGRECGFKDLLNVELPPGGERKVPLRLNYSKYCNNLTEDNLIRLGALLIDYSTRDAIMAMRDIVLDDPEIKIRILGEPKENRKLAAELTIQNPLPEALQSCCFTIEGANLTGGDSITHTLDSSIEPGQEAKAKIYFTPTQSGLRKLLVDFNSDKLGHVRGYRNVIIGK

[3] = molecular target: T3, zTG2a (Danio rerio, UniProt Q66L63)
T3 construct: gene tgm2a; full-length CDS in pET30a(+), His6-tagged (text: C-terminal His-tag; reverse primer keeps stop codon), E. coli BL21(DE3), Ni-NTA; primer-encoded N-terminus MERVVE, C-terminus LVIYE
T3 sequence (Q66L63 1-679): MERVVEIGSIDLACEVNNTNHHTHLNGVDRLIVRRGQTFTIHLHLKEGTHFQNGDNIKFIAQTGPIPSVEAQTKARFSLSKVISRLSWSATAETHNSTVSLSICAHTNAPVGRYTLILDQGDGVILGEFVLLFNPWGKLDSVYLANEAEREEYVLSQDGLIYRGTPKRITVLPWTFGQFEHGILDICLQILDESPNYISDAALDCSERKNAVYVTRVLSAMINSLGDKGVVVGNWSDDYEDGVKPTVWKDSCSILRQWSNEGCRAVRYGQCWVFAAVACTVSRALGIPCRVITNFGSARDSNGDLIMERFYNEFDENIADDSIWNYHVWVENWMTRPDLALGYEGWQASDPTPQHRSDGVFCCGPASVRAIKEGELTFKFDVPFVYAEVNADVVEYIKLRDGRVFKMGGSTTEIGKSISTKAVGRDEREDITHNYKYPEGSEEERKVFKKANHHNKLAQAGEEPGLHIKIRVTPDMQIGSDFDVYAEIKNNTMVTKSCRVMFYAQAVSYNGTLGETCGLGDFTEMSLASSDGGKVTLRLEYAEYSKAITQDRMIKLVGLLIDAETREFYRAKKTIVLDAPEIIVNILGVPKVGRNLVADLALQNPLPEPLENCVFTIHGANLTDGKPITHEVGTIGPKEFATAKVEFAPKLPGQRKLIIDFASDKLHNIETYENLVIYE

[4] = molecular target: T2, zTG2b; conditions: amine co-substrate with N,N-dimethylcasein; 5 mM CaCl2, 10 mM DTT, pH 8.0, 37 °C
Excerpt: ELISA, pentylamine-biotin incorporation into coated N,N-dimethylcasein on zTG2b | incorporate pentylamine-biotin into the substrate N,N-dimethylcasein in solution. All three zebrafish TGs2

[5] = molecular target: T1, zTG2like; conditions: amine co-substrate with N,N-dimethylcasein; 5 mM CaCl2, 10 mM DTT, pH 8.0, 37 °C
Excerpt: ELISA, pentylamine-biotin incorporation into coated N,N-dimethylcasein on zTG2like | incorporate pentylamine-biotin into the substrate N,N-dimethylcasein in solution. All three zebrafish TGs2

[6] = molecular target: T4, hTG2 (Homo sapiens, UniProt P21980); conditions: amine co-substrate with N,N-dimethylcasein; 5 mM CaCl2, 10 mM DTT, pH 8.0, 37 °C
T4 construct: gene TGM2; recombinant hTG2 used as positive control; source and tag of purified protein not detailed; 77 kDa
T4 sequence (P21980 2-687): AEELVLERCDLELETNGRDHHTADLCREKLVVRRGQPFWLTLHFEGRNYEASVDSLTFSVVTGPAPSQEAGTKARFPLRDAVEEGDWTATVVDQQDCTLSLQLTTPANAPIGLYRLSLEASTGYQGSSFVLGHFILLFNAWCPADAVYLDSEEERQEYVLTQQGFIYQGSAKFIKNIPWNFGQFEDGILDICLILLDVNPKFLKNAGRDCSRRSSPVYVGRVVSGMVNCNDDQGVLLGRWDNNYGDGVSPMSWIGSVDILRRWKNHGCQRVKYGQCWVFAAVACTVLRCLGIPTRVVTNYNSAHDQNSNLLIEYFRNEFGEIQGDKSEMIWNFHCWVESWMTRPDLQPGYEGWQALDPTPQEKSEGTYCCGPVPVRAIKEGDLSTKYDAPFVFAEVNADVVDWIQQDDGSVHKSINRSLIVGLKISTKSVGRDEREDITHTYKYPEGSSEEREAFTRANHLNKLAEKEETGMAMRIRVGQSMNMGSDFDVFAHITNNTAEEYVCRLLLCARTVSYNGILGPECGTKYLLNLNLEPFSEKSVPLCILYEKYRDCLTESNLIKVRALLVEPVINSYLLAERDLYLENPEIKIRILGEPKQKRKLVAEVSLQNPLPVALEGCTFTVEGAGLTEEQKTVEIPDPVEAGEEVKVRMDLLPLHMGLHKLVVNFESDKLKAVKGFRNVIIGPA

[7] = molecular target: T3, zTG2a; conditions: amine co-substrate with N,N-dimethylcasein; 5 mM CaCl2, 10 mM DTT, pH 8.0, 37 °C
Excerpt: ELISA, pentylamine-biotin incorporation into coated N,N-dimethylcasein on zTG2a | incorporate pentylamine-biotin into the substrate N,N-dimethylcasein in solution. All three zebrafish TGs2

[8] = molecular target: T4, hTG2; conditions: 50 ng enzyme, 0.2 mM pentylamine-biotin, 5 mM CaCl2, 10 mM DTT, pH 8.0, 37 °C, 1 h; GTP 100 µM (methods) or 100 mM (figure legend)
[9] = molecular target: T3, zTG2a; conditions: 50 ng enzyme, 0.2 mM pentylamine-biotin, 5 mM CaCl2, 10 mM DTT, pH 8.0, 37 °C, 1 h; GTP 100 µM (methods) or 100 mM (figure legend)

COC(=O)[C@H](CC(C)C)NC(=O)[C@@H]1CCCN1C(=O)[C@@H](NC(=O)[C@H](CCC(=O)C=[N+]=[N-])NC(=O)OCc1ccccc1)C(C)C [ZDON] (Cbz-[DON]VPL-OMe)
inhibition at 25 µM [1]: ~50%
% inhibition at 25 μM [2]: ~ 50%
inhibition at 25 µM [3]: ~50%

NCCCCCNC(=O)CCCC[C@@H]1SC[C@@H]2NC(=O)N[C@@H]21 [pentylamine-biotin]
ELISA, pentylamine-biotin incorporation into coated N,N-dimethylcasein [4]: incorporate pentylamine-biotin into the substrate N,N-dimethylcasein in solution. All three zebrafish TGs2
ELISA, pentylamine-biotin incorporation into coated N,N-dimethylcasein [5]: incorporate pentylamine-biotin into the substrate N,N-dimethylcasein in solution. All three zebrafish TGs2
ELISA, pentylamine-biotin incorporation into coated N,N-dimethylcasein [6]: as well as the human enzyme were able to mediate the transamidation reaction
ELISA, pentylamine-biotin incorporation into coated N,N-dimethylcasein [7]: incorporate pentylamine-biotin into the substrate N,N-dimethylcasein in solution. All three zebrafish TGs2

Nc1nc2c(ncn2[C@@H]2O[C@H](COP(=O)(O)OP(=O)(O)OP(=O)(O)O)[C@@H](O)[C@H]2O)c(=O)[nH]1 [GTP]
% inhibition [8]: the inhibitory effect of GTP was only one third of that observed for the human enzyme
% inhibition [9]: zTG2a is the only zebrafish TG2 whose activity is affected by the presence of GTP
